Assay results as given in patent US20220340597A1, “HEXAHYDRO-1H-PYRAZINO[1,2-A]PYRAZINE COMPOUNDS FOR THE TREATMENT OF AUTOIMMUNE DISEASE” (Hoffmann-La Roche Inc., priority 2019, published 2022).

Tests used:
[1] = molecular target: T1, human TLR9 (Homo sapiens, UniProt Q9NR96); assay: HEK293-Blue-hTLR-9 cells assay; assay type: cell-based; settings: HEK293-Blue-hTLR9 cells, ODN2006 stimulation, 20 hrs, SEAP reporter; read-out: HEK/hTLR9 IC50
T1 construct: host or cells: HEK293 (HEK-Blue hTLR9)
T1 sequence (Q9NR96 26-1032): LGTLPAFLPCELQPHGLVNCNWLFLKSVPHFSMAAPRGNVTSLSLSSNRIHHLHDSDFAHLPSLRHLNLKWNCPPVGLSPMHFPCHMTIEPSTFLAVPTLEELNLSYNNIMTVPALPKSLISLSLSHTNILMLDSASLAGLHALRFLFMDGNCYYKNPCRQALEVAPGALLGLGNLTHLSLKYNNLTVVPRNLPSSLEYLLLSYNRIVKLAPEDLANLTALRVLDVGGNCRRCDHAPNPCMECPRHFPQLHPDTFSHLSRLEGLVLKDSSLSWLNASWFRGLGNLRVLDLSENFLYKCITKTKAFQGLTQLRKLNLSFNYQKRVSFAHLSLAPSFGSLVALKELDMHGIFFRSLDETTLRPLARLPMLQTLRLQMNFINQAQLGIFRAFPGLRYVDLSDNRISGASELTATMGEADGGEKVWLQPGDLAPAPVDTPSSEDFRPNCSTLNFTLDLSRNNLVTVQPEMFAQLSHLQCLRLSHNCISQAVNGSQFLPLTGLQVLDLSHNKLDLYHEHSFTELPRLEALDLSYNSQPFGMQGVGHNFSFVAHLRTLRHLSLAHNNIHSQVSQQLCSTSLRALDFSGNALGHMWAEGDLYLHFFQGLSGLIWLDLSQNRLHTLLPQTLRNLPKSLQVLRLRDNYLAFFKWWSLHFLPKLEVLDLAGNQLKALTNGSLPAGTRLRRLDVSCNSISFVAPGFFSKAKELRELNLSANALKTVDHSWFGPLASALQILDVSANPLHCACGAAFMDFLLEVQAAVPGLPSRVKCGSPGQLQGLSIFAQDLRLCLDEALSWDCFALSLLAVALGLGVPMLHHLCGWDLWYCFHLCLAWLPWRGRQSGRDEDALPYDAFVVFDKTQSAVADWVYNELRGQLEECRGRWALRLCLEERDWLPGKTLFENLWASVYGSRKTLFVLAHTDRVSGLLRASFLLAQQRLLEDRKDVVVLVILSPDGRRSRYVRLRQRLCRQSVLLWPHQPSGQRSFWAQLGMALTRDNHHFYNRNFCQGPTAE
Method: The following tests were carried out in order to determine the activity of the compounds of formula (I) and (Ia) in HEK293-Blue-hTLR-7/8/9 cells assay.
HEK293-Blue-hTLR-9 Cells Assay:
A stable HEK293-Blue-hTLR-9 cell line was purchased from InvivoGen (Cat. #: hkb-htlr9, San Diego, Calif., USA). These cells were originally designed for studying the stimulation of human TLR9 by monitoring the activation of NF-κB. A SEAP (secreted embryonic alkaline phosphatase) reporter gene was placed under the control of the […] minimal promoter fused to five NF-κB and AP-1-binding sites. The SEAP was induced by activating NF-κB and AP-1 via stimulating HEK-Blue hTLR9 cells with TLR9 ligands. Therefore, the reporter expression was declined by TLR9 antagonist under the stimulation of a ligand, such as ODN2006 (Cat. #: tlr1-2006-1, Invivogen, San Diego, Calif., USA), for incubation of 20 hrs. The cell culture supernatant SEAP reporter activity was determined using QUANTI-Blue™ kit (Cat. #: rep-qb1, Invivogen, San Diego, Calif., USA) at a wavelength of 640 nm, a detection medium that turns purple or blue in the presence of alkaline phosphatase.
Then 20 μL of the supernatant from each well was incubated with 180 μL Quanti-blue substrate solution at 37° C. for 2 h and the absorbance was read at 620-655 nm using a spectrophotometer. The signaling pathway that TLR9 activation leads to downstream NF-κB activation has been widely accepted, and therefore similar reporter assay was modified for evaluating TLR9 antagonist.

[2] = molecular target: T2, human TLR8 (Homo sapiens, UniProt Q9NR97); assay: HEK293-Blue-hTLR-8 cells assay
T2 sequence (Q9NR97 27-1041): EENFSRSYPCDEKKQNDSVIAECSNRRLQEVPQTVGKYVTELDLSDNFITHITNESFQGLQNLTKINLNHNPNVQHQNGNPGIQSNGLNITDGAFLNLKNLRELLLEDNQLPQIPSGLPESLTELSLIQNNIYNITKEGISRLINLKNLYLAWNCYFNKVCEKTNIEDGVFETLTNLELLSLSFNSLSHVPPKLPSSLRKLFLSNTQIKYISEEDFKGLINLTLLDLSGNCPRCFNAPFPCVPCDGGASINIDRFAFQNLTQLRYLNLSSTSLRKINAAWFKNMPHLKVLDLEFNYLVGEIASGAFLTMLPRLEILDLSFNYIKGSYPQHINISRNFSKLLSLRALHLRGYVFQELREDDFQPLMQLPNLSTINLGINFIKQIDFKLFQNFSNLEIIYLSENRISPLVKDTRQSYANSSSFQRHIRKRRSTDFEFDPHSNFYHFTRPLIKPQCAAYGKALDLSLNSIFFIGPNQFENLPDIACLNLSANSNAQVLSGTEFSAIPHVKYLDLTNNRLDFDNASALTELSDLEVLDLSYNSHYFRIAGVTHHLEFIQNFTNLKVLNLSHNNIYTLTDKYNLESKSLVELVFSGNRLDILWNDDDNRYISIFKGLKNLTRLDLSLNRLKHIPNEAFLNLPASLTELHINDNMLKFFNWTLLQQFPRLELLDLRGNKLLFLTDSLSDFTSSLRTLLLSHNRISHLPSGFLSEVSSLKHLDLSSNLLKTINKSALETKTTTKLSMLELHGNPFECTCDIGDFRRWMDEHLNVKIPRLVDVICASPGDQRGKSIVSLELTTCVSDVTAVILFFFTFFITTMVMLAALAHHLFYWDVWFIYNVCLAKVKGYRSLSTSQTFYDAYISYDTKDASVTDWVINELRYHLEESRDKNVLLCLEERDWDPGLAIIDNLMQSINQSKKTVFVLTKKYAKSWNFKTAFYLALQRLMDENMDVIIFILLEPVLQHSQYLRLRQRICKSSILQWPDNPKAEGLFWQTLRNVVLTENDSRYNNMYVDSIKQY

| SMILES | IC50 [1] | IC50 [2] |
| --- | --- | --- |
| Cc1nc(N2CCNCC2)ccc1CN1CCN2[C@@H](C1)CN(c1ccc(C#N)c3ncccc13)C[C@H]2C [Example 60, 5-[(4R,9aS)-4-methyl-8-[(2-methyl-6-piperazin-1-yl-3-pyridyl)methyl]-3,4,6,7,9,9a-hexahydro-1H-pyrazino[1,2-a]pyrazin-2-yl]quinoline-8-carbonitrile] | 53 nM | 14 nM |
| C[C@@H]1CN(c2ccc(C#N)c3ncccc23)C[C@@H]2CN(c3ccnc(N4CC(N)C4)c3)CCN21 [Example 41, 5-[(4R,9aS)-8-[2-(3-aminoazetidin-1-yl)-4-pyridyl]-4-methyl-3,4,6,7,9,9a-hexahydro-1H-pyrazino[1,2-a]pyrazin-2-yl]quinoline-8-carbonitrile] | 45 nM | 7 nM |
| [2H]c1ccc2c(N3C[C@@H]4CN(CCc5ccc(N6C[C@H]7NCCO[C@@H]7C6)nc5)CCN4[C@H](C)C3)ccc(C#N)c2n1 [Example 77, 5-[(4R,9aS)-8-[2-[6-[(4aR,7aR)-3,4,4a,5,7,7a-hexahydro-2H-pyrrolo[3,4-b][1,4]oxazin-6-yl]-3-pyridyl]ethyl]-4-methyl-3,4,6,7,9,9a-hexahydro-1H-pyrazino[1,2-a]pyrazin-2-yl]-2-deuterio-quinoline-8-carbonitrile] | 44 nM | 24 nM |
| C[C@@H]1CN(c2ccc(C#N)c3ncccc23)C[C@@H]2CN(CCc3ccc(N4CC(C)(N)C4)nc3)CCN21 [Example 65, 5-[(4R,9aS)-8-[2-[6-(3-amino-3-methyl-azetidin-1-yl)-3-pyridyl]ethyl]-4-methyl-3,4,6,7,9,9a-hexahydro-1H-pyrazino[1,2-a]pyrazin-2-yl]quinoline-8-carbonitrile] | 50 nM | 28 nM |
| C[C@@H]1CN(c2ccc(C#N)c3ncccc23)C[C@@H]2CN(c3ccnc(N4CCOC[C@@H](N)C4)c3)CCN21 [Example 53, 5-[(4R,9aS)-8-[2-[(6S)-6-amino-1,4-oxazepan-4-yl]-4-pyridyl]-4-methyl-3,4,6,7,9,9a-hexahydro-1H-pyrazino[1,2-a]pyrazin-2-yl]quinoline-8-carbonitrile] | < 32 nM | 20 nM |
| CO[C@@H]1CN(c2ccc(CCN3CCN4[C@@H](C3)CN(c3ccc(C#N)c5ncccc35)C[C@H]4C)cc2)C[C@H]1N [Example 26, 5-[(4R,9aS)-8-[2-[4-[(3R,4R)-3-amino-4-methoxy-pyrrolidin-1-yl]phenyl]ethyl]-4-methyl-3,4,6,7,9,9a-hexahydro-1H-pyrazino[1,2-a]pyrazin-2-yl]quinoline-8-carbonitrile] | 87 nM | 8 nM |
| C[C@@H]1CN(c2ccc(C#N)c3ncccc23)C[C@@H]2CN(Cc3cccc(N4CCNCC4)n3)CCN21 [Example 27, 5-[(4R,9aS)-4-methyl-8-[(6-piperazin-1-yl-2-pyridyl)methyl]-3,4,6,7,9,9a-hexahydro-1H-pyrazino[1,2-a]pyrazin-2-yl]quinoline-8-carbonitrile] | 49 nM | 13 nM |
| C[C@@H]1CN(c2cccc(CCN3CCN4[C@@H](C3)CN(c3ccc(C#N)c5ncccc35)C[C@H]4C)n2)CCN1 [Example 58, 5-[(4R,9aS)-4-methyl-8-[2-[6-[(3R)-3-methylpiperazin-1-yl]-2-pyridyl]ethyl]-3,4,6,7,9,9a-hexahydro-JH-pyrazino[1,2-a]pyrazin-2-yl]quinoline-8-carbonitrile] | 51 nM | 40 nM |
| C[C@@H]1CN(c2ccc(C#N)n3ncc(F)c23)C[C@@H]2CN(CCc3ccc(N4C[C@@H](N)[C@@H](F)C4)nc3)CCN21 [Example 75, 4-[(4R,9aS)-8-[2-[6-[(3R,4S)-3-amino-4-fluoro-pyrrolidin-1-yl]-3-pyridyl]ethyl]-4-methyl-3,4,6,7,9,9a-hexahydro-1H-pyrazino[1,2-a]pyrazin-2-yl]-3-fluoro-pyrazolo[1,5-a]pyridine-7-carbonitrile] | 65 nM | 84 nM |

Second part, the compound after the results:

| IC50 [1] | IC50 [2] | SMILES |
| --- | --- | --- |
| < 32 nM | 17 nM | [2H]c1ccc2c(N3C[C@@H]4CN(Cc5ccc(N6CCNCC6)nc5)CCN4[C@H](C)C3)ccc(C#N)c2n1 [Example 78, 5-[(4R,9aS)-4-methyl-8-[(6-piperazin-1-yl-3-pyridyl)methyl]-3,4,6,7,9,9a-hexahydro-1H-pyrazino[1,2-a]pyrazin-2-yl]-2-deuterio-quinoline-8-carbonitrile] |
| 126 nM | 142 nM | Cc1cc(N2CC3(CN(C)C3)C2)cnc1N1CCN2[C@@H](C1)CN(c1cc(=O)n(C)c3ncccc13)C[C@@H]2C [Example 113, 4-[(4S,9aR)-4-methyl-8-[3-methyl-5-(6-methyl-2,6-diazaspiro[3.3]heptan-2-yl)-2-pyridyl]-3,4,6,7,9,9a-hexahydro-1H-pyrazino[1,2-a]pyrazin-2-yl]-1-methyl-1,8-naphthyridin-2-one] |
| 140 nM | 17 nM | [2H]c1ccc2c(N3C[C@@H]4CN(c5ccc(N6C[C@@H](N)[C@H](OC)C6)nc5)CCN4[C@@H](C)C3)ccc(C#N)c2n1 [Example 115, 5-[(4S,9aR)-8-[6-[(3R,4R)-3-amino-4-methoxy-pyrrolidin-1-yl]-3-pyridyl]-4-methyl-3,4,6,7,9,9a-hexahydro-1H-pyrazino[1,2-a]pyrazin-2-yl]-2-deuterio-quinoline-8-carbonitrile] |
| 107 nM | 6 nM | [2H]c1ccc2c(N3C[C@@H]4CN(c5ccc(CN6C[C@@H](N)[C@H](OC)C6)c(C)n5)CCN4[C@@H](C)C3)ccc(C#N)c2n1 [Example 123, 5-[(4S,9aR)-8-[5-[[(3R,4R)-3-amino-4-methoxy-pyrrolidin-1-yl]methyl]-6-methyl-2-pyridyl]-4-methyl-3,4,6,7,9,9a-hexahydro-1H-pyrazino[1,2-a]pyrazin-2-yl]-2-deuterio-quinoline-8-carbonitrile] |
